The subject of assay [1] is Monocytes-derived Dendritic cells (MDDCs). Nature of the assay: surface receptor expression on monocyte-derived dendritic cells, flow cytometry. The format is cell-based, human. The procedure:
Materials and Methods. Uterine epithelial cell line (ECC-1) was cultured according to established methods to establish cellular polarity with apical and basolateral compartments (Schaefer, et al. (2004) Immunology 112:428-436). The formation of tight junctions by the epithelial cell monolayer was routinely monitored by measurement of transepithelial resistance (TER) (Richardson, et al. (1995) Biol. Reprod. 53:488-498). […] The pooled media was centrifuged for 5 minutes at 10,000 g and stored at −80° C. for use in subsequent studies.
Peripheral blood mononuclear cells (PBMC) were obtained from residues of platelet pheresis according to known methods (Dietz, et al. (2006) Transfusion 46:2083-2089). Monocytes were subsequently enriched with Rosette Sep reagent (StemCell, Vancouver, BC). Blood specimens were from healthy adult males. Monocytes-derived Dendritic cells (MDDCs) were in vitro generated with GM-CSF (50 ng/ml) and IL-4 (50 ng/ml) (PeproTech Inc, Rocky Hill, N.J.) (Sallusto Lanzavecchia (1994) J. Exp. Med. 179:1109-1118). MDDCs were differentiated for 7 days in the presence or absence of 24-hour conditioned medium (1:1 dilution) obtained from ECC-1. In some experiments TGF-beta receptor 1 blocker, SB431542 (10 μM; Tocris Cookson, Inc., St. Louis, Mo.) (Eriksson, et al. (2006) Am. J. Reprod. Immunol. 56:321-328; Shen, et al. (2007) Clin. Exp. Immunol. 149(1):155-61) was simultaneously added with ECC-1 CM for the entire duration of the differentiation. As positive control for TGF-beta effects on MDDCs, experimental conditions were included in which MDDCs were differentiated with recombinant human TGF-beta1 at three different concentrations (0.1, 1 and 10 ng/mL) in the presence or absence of SB431542. Following 7 days of culture, cells were harvested, washed and subsequently used for flow cytometry analyses.
Following six days of in vitro differentiation, surface staining of MDDCs was performed with the following fluorochrome-labeled monoclonal antibodies: CD1a (HI149), CD14 (61D3), from Ebioscience (San Diego, Calif.); and CD163 (215927), CCR5 (45531), CXCR4 (12G5), DC-SIGN (120507) from R&D Systems (Minneapolis, Minn.). Matched isotype controls for the antibodies were used to control for non-specific binding. Following antibody staining, cells were washed with staining buffer and fixed with 2% methanol-free paraformaldehyde in 1×PBS (2% PFA), followed by analysis with a Becton Dickinson FACS CALIBUR (San Jose, Calif.). The acquired FACS data were analyzed by CELL QUEST (BD Biosciences).
Statistical analysis was performed using two-way analysis of variance (ANOVA) ([…] Prism Version 5.0; […] Software Inc., San Diego, Calif.). A value of P<0.05 was considered significant.

Assay [2] can be described thus: systemic inflammatory response to E. coli endotoxin after hydrocortisone pre-treatment in volunteers. The assay is classed as in vivo, human. As to conditions: for plasma G-CSF concentrations after LPS, vs Control Group: multiplex immunobead. An excerpt: Materials and Methods. Participants (n=36) were healthy male and female volunteers who were taking no chronic medications (other than oral contraceptives) and who were between the ages of 18 and 55.
On Day 1 of the study, participants were randomized in a double-blind manner to a Control Group, a Stress Group or a Pharm Group. A peripheral intravenous catheter was inserted in a hospital outpatient facility where participants remained during the day. For six hours, Control Group participants received intravenous saline at […] by infusion pump; Stress Group participants received 1.5 μg/kg/minute hydrocortisone (SOLUCORTEF®, Upjohn) in normal saline at 10 ml/hour, and Pharm Group participants received 3.0 μg/kg/minute hydrocortisone in normal saline at 10 ml/hour. The following day (Day 2), participants were admitted to an acute care facility where a peripheral intravenous catheter was again inserted in a proximal arm vein. Continuous electrocardiographic and pulse oximetry measurements were initiated; blood pressure and core temperature were measured every 15 minutes for the next five hours and every 30 minutes for the next 4 hours. Participants received 10 ml/kg lactated Ringer's solution intravenously over the first 2 hours after which the infusion was decreased to 1.5 ml/kg/hour. After the first hour, participants were administered 2 ng/kg E. coli endotoxin intravenously over 2 minutes. Participants remained in the acute care facility for remainder of the day with continuous nursing care and under the direct supervision of a physician. The intravenous catheter was removed after 9 hours. The following day (Day 3) and 2 days later (Day 5), repeat blood samples were obtained by venipuncture.
Salivary free cortisol measurements were made on Day 1 to compare the in vivo cortisol pre-treatment with laboratory reports that typically test the effects of free glucocorticoid concentrations. On Day 2 of the study, total plasma cortisol was measured to allow for comparison with the many clinical reports that have assessed these hormones during experimental endotoxemia and in endotoxemic patients. For salivary free cortisol measurements, saliva samples were collected with a […]™ collection device and stored at −80° C. until analysis by SALIMETRICS® Expanded Range High Sensitivity Salivary Cortisol Enzyme Immunoassay Kit (State College, Pa.). The analytical sensitivity of this assay is 3 ng/dL. For total cortisol, plasma was separated from heparinized whole blood and stored at −80° C. until analysis for plasma cortisol on an […]® 1000 analyzer using a Siemens Cortisol kit (Los Angeles, Calif.). The analytical sensitivity of this assay is 0.2 μg/dL. All adrenocorticotropic hormone (ACTH) measurements were performed on the […]® 1000 analyzer using a Siemens ACTH kit (Los Angeles, Calif.). The analytical sensitivity of this assay is 9 pg/mL. C-reactive protein (CRP) measurements were performed on the Roche P Module using the Roche High Sensitivity CRP kit (Indianapolis, Ind.). Analytical sensitivity of this assay is 0.1 mg/L. Complete blood counts were performed on the ADVIA 120® Hematology Analyzer using Siemens reagents (Ramsey, Minn.).
Plasma samples were collected and frozen at −80° C. for batched measurement of TNFalpha, IL-6 and IL-10 concentrations. TNFalpha was measured using a TNFalpha sandwich ELISA (paired antibodies; BD Biosciences Pharmingen, San Diego, Calif.). IL-6 levels were determined using an IL-6 ELISA kit (Peprotech, Rocky Hill, N.J.). IL-10 was measured using an IL-10 ELISA kit (Biosource, Camarillo, Calif.). Further cytokine testing was completed on frozen samples using multiplex immunobead technology (Luminex Corp.) which combines the principle of a sandwich immunoassay with fluorescent bead-based technology, allowing individual and multiplex analysis of multiple analytes in a single microtiter well. […]

The subject of the next assay is HIV-1 X4/T-tropic IIIB. Briefly: TZM-bl infectivity assay, HIV-1 IIIB. The assay is classed as cell-based. As to the method: (§1) The TZM indicator cell line is a HeLa cell derivative that expresses high levels of CD4, CCR5 and CXCR4 (Wei, et al. (2002) Antimicrob. Agents Chemother. 46(6):1896-905). The cells contain HIV long terminal repeat (LTR)-driven β-galactosidase and luciferase reporter cassettes that are activated by HIV tat expression.
(§2) TZM cells were seeded at 2×10^4 cells per well in a 96-well microtiter plate and allowed to adhere overnight at 37° C. Varying doses of recombinant human Trappin-2/Elafin (Peprotech, Rocky Hill, N.J.) were incubated with HIV-1 IIIB and BaL at multiplicity of infection (MOI) 1 for 1 hour at 37° C. in a final volume of 100 μl. Following incubation, the media was aspirated from TZM cells and the virus plus Trappin-2/Elafin was added to the cells along with 100 μl of TZM media. Luciferase activity was measured after 48 hours at 37° C. with 5% CO2 in a humidified incubator. Briefly, the supernatants were aspirated, and the cells were lysed with a BETA GLO luciferase assay substrate. Light intensity of each well was measured using a luminometer. Uninfected cells were used to determine background luminescence. All infectivity assays were performed in quadruplicate.
(§3) Other experiments were conducted in order to determine whether the inhibitory effects of Trappin-2/Elafin were at the cell surface level such as the blocking of a co-receptor. For these experiments, varying doses of Trappin-2/Elafin were directly added to TZM cells and incubated for 1 hour at 37° C. prior to washing with 1×PBS and addition of IIIB or BaL viruses. In additional experiments to determine possible post-infection mechanisms of inhibition by Trappin-2/Elafin, TZM cells were infected with HIV-1 IIIB and BaL at MOI 1 and were washed at 6 hours and 24 hours post-infection followed by the addition of 10 ng/ml rTrappin-2/Elafin. Assays were developed at 48 hours by addition of the BETA-GLO substrate and measuring relative light units using a luminometer.
(§4) Since HIV-1 is an important sexually transmitted pathogen, the activity of recombinant Trappin-2/Elaf in (rTrappin-2/Elafin) was evaluated against HIV-1 X4/T-tropic IIIB and R5/M-tropic BaL. HIV-1 IIIB and BaL were incubated with rTrappin-2/Elafin at 0.01, 0.1, 1, and 10 ng/ml for 1 hour at 37° C. TZM-bl indicator cells were plated the previous day at 25,000 cells per well and grown to 70-80% confluence. The virus-Trappin-2/Elafin mixture was added to the TZM cells and incubated for 48 hours at 37° C. At the end of the incubation period, BETA-GLO substrate was added to the cells and viral infection was quantified using a luminometer, expressed as relative light units (RLU). The data was expressed as percent of control with virus-only control set at 100%. […] Therefore, the concentrations of Trappin-2/Elafin showing anti-HIV-1 activity were in the range of physiological levels of this molecule that were secreted by the FRT epithelial cells. Since the inhibitory activity was observed as a result of pre-incubation of HIV-1 and rTrappin-2/Elafin, it is contemplated that the effect of Trappin-2/Elafin on viral infection was direct. […]
(§5) Laboratory-adapted viral strains HIV-1 IIIB (×4) and BaL (R5) were obtained and virus stocks were propagated in PHA-stimulated human PBMC and stored frozen at −80° C. Virus stocks produced in PBMC of molecularly cloned HIV-1 NL4.3 (×4; lab-adapted) and YU-2.c (R5; directly cloned without culture) were obtained. Virus titers were determined on TZM-bl cells as described herein. Also used was a PBMC-derived virus stock of pCH077.c, a recently generated Clade B infectious molecular clone matching the nucleotide sequence determined to be the transmitted/founder virus sequence of CHAVI subject 700010077. […]

The subject of another assay is HIV-1 R5/M-tropic BaL. Nature of the assay: TZM-bl infectivity assay, HIV-1 BaL. The following applies: for post-infection inhibition, BaL: 20 ng/mL. The format is cell-based. The procedure: as §1, §2, §3, §4, §5
[3] abbreviates: cells pre-incubated 1 hour, washed before virus.
The mark [4] stands for this setting: virus pre-incubated 1 hour with 2, 20, 200 ng/mL, 48 hours.

As for `NC(=O)c1ccc(-c2nc(-c3ccc4c(c3)OCO4)c(-c3ccccn3)[nH]2)cc1` [SB431542], the “modulatory effect of ECC-1 CM (suppression of DC-SIGN expression on MDDCs)” value in assay [1] (SB431542 10 μM added with ECC-1 CM during differentiation) is listed as “abrogated”. For the same compound, in assay [1] (TGF-beta receptor blocker with ECC-1 CM), the “expression of CD1a by CM-DC” value is recorded as “no significant effect”. The “UEC conditioned medium effects on DC (enhanced CCR5 and CXCR4, suppressed DC-SIGN)” value in assay [1] (in vitro differentiation) is “abolished these effects”.

As for `C[C@]12CCC(=O)C=C1CC[C@@H]1[C@@H]2[C@@H](O)C[C@@]2(C)[C@H]1CC[C@]2(O)C(=O)CO` [hydrocortisone], the “release of early pro-inflammatory molecules” value in assay [2] (1.5 μg/kg/minute at 10 ml/hr for six hours) is on record as “significant enhancement”. In assay [2] (Pharm 3 μg/kg/min), the “Plasma IL-6 after LPS, vs Control Group” value is “no difference”; the “Plasma IL-10 after LPS, vs Control Group” value is “no difference”; the “TNF-alpha concentrations in plasma after LPS, vs Control Group” value was “not significantly different”; the “plasma G-CSF concentrations after LPS, vs Control Group” value was “no difference”. Moreover, in assay [2] (Stress 1.5 μg/kg/min), the “TNF-alpha concentrations in plasma after LPS, vs Control Group” value was “not significantly different” and the “plasma G-CSF concentrations after LPS, vs Control Group” value is reported as “significant augmentation”. In addition, the “ACTH concentrations, vs Control Group” value in assay [2] (Stress 1.5 μg/kg/min, 3 and 4 hours after LPS injection) was “higher”. Further, the “Plasma IL-6 after LPS, vs Control Group” value in assay [2] (Stress 1.5 μg/kg/min, p<0.005) is “significantly higher”. In addition, in assay [2] (Stress 1.5 μg/kg/min, p<0.05), the “Plasma IL-10 after LPS, vs Control Group” value is “significantly lower”.

For “rCCL20/MIP3α: recombinant human CCL20/MIP3α (Peprotech)”, the “post-infection inhibition, IIIB” value with HIV-1 X4/T-tropic IIIB (added 6 and 24 hours post-infection, 20 ng/mL) was “no significant post-infection inhibition”. For the same compound, the “inhibition of X4/IIIB after pre-incubation of TZM cells” value in the assay on HIV-1 X4/T-tropic IIIB (setting [3]) was “no significant inhibition”. Also, the “inhibition of X4/IIIB” value in the assay on HIV-1 X4/T-tropic IIIB (setting [4]) is recorded as “inhibited”. Besides, the “post-infection inhibition, BaL” value was “slight inhibition” with HIV-1 R5/M-tropic BaL (added 6 hours post-infection) and “no significant post-infection inhibition” with HIV-1 R5/M-tropic BaL (added 24 hours post-infection). For the same compound, in the assay on HIV-1 R5/M-tropic BaL (setting [3]), the “inhibition of R5/BaL after pre-incubation of TZM cells” value is given as “no significant inhibition”. In addition, in the assay with HIV-1 R5/M-tropic BaL (setting [4]), the “inhibition of R5/BaL” value is given as “inhibited”.
